Results: patent US20230355599A1, “BIOMARKERS FOR CBL, AND COMPOSITIONS AND METHODS FOR THEIR USE” (NURIX THERAPEUTICS, INC., priority 2022, published 2023)

Tested on: phosphorylated ZAP70
Assay: Phosphorylated ZAP70 in circulating CD8+ T cells after oral dosing of cynomolgus monkeys (flow cytometry, ex vivo anti-CD3/CD28 stimulation)
Method: To assess these proximal biomarkers of Cbl-b inhibition on CD8^+ T cells, pharmacodynamic analysis was performed in conjunction with a pharmacokinetic study conducted at Charles River Laboratories. Circulating blood was obtained from cynomolgus monkeys treated with 0.3, 1, 3 or 10 mg/kg of Compound 23 after a single dose and after 3 doses. The response to Cbl-b inhibition on proximal biomarkers (pHS1, pPLCγ2, and pZAP70) was measured in CD8^+ T cells using flow cytometry. This technique is highly quantitative and can measure multiple phosphorylation markers in different cell populations within the same sample.
Compound 23 was formulated in vehicle (0.2% Tween 80 in DI water+1 eq HCL) and aliquoted into individual (not serially diluted) dosing solutions of 0.3, 1, 3 and 10 mg/mL by stirring for 5-10 min, vortexing, and sonicating again as necessary to produce an even suspension that was stirred constantly at 4° C. to achieve and maintain a homogenous suspension. To prepare vehicle, 0.2% Tween 80 in deionized (DI) water, water was measured into a beaker with continuous stirring. Tween 80 was added sequentially, and stirring continued until the solution dissolved; the solution was stored at 2-8° C.
For pharmacodynamic analysis, whole blood was obtained from cynomolgus monkeys and used for flow cytometry assays to evaluate phosphorylated biomarkers, pHS1, pPLCγ2, and pZAP70, in circulating CD8^+ T cells.
On the day of dosing, blood samples were collected via femoral venipuncture in accordance with test facility standard operating procedures. 1 mL/tube of whole blood was collected pre-dose (time 0) and at 0.5, 1, 2, 4, 6, and 24 hours post-dose and added into 2 types of TruCulture tubes (Myriad) for pharmacodynamic analysis. One tube contained media alone and is denoted as “Null”, and the second tube contained 2 μg/mL anti-CD3 and anti-CD28, which were prepared at Nurix prior to the study using cynomolgus specific anti-CD3 (BD Biosciences; SP34-2) and anti-CD28 (Bio X cell; CD28.2) and denoted as “CD3/CD28”. Tubes were shipped by overnight courier on cold pack the day of collection and analyzed for phosphorylated biomarkers of Cbl-b inhibition by flow cytometry.
Following PD collection, upon receipt of TruCulture tubes, each tube was inverted 5-6 times to ensure a mixed suspension of blood. 30 μg of goat anti-mouse IgG (H+L) antibody (Invitrogen) was added to cross-link the stimulation antibodies and induce synchronized cellular stimulation. Cells were stimulated for 60 minutes alongside non-stimulated controls for each time point.
All buffers (Phosflow Lyse/Fix Buffer 5×, Phosflow Perm Buffer I; BD Biosciences) were prepared according to the manufacturer's instructions. After 60 minutes of goat anti-mouse IgG (H+L) antibody stimulation, one volume of blood was mixed with 20 volumes of pre-warmed BD Phosflow Lyse/Fix Buffer (1×) by repeated pipetting (8-10 times), then incubated in a 37° C. water bath for 10 min. Cells were washed and centrifuged at 500×g for 5 min (2×) with PBS. Following centrifugation, cell pellets were resuspended in cold BD Phosflow Perm Buffer I (BD) and incubated at 4° C. for 20 min. […]

Structure (SMILES): C[C@H]1CCCN(Cc2cc3c(c(C(F)(F)F)c2)CN(c2cccc([C@]4(c5nncn5C)C[C@@H](C)C4)c2)C3=O)C1 [Compound 23]
- phosphorylated ZAP70 in comparison to baseline (multiple doses of 10 mg/kg, 3 days of daily oral dosing): significant increases
- time of peak increase of phosphorylated ZAP70 (multiple doses of 10 mg/kg, 4 hours post dose): 76 h
- time of maximal signal, phosphorylated ZAP70 (single dose oral 10 mg/kg): 2 hours post dose
- phosphorylated ZAP70 sustained after 24 hours (single dose oral 10 mg/kg, after 24 hours): significant increase
- phosphorylated ZAP70 in comparison to baseline (single dose oral 10 mg/kg, circulating CD8+ T cells, anti-CD3/CD28 stimulated): significant increases
